{
  "source": "patent US12115182B2",
  "about": "“Adenosine A2A agonists for the treatment of cytokine storm syndrome” (priority 2021, dated 2024)",
  "key": {"MHS cells": {"system": "MHS cells", "assay": "RAGE shedding in alveolar macrophages (MHS): Western blot of sRAGE, immunofluorescence of RAGE", "type": "cell-based, mouse", "details": "PMA-treated MHS cells; GM6001 2 nM, regadenoson 100 nM, ATL146e 10 nM"}, "[1]": {"assay": "Plasma levels of regadenoson in lung transplant recipients (LC-MS/MS)", "type": "in vivo, human", "protocol": "The peripheral blood samples for regadenoson measurement were collected at the following timepoints: 1) Prior to 1st lung reperfusion; 2) 1 hour post 1st lung perfusion; 3) 6 hours post infusion start; 4) 12 hours post infusion start; 5) 24 hours post infusion start. The blood samples were centrifuged, and the plasma samples were collected and stored at −80° C. The levels of regadenoson were determined via liquid chromatography-mass spectrometry with an improved d protocol based on our previous publication (LAU et al., J Heart Lung Transplant, (2020), 39:563-570) at The Mass Spectrometry Center at the School of Pharmacy, University of Maryland, Baltimore (detailed in supplemental methods).\nChemicals and Reagents. Regadenoson (purity 99.83%) was purchased from Selleckchem (Houston, TX, USA) and Regadenoson-d3 ((purity 99.68%) used as internal standard (IS) was obtained from Toronto Research Chemicals, (North York, ON, CT). Optima LC/MS grade water (H2O), methanol, and formic acid (FA) were purchased from Fisher Scientific (Pittsburgh, PA, USA).\nCalibration Standards. 1 mg/ml stock solutions of Regadenoson and Regadenoson-d3 were prepared in Dimethyl sulfoxide (DMSO) and further working solutions to spike in plasma were prepared in methanol and water (70:30, v/v). Calibration standards (STD) in plasma ranged from 0.05 ng/ml to 50 ng/ml (8 points: 0.05, 0.1, 1, 5, 20, 30, 40, and 50 ng/ml). Quality control (QC) samples at 3 concentration levels (0.15 ng/ml, LQC; 25 ng/ml, MQC; and 45 ng/ml, HQC) were also prepared in plasma. Internal standard solution (Regadenoson-d3; 250 ng/ml) was prepared in methanol and water (70:30, v/v).\nSample Preparation. 50 μL of plasma sample (STD/QC/test sample) was added into a 2 ml centrifuge tube containing 20 μL of IS solution (250 ng/ml) and mixed well. Next, 500 μL of acetonitrile was added, shaken for 3 min at 2100 rpm, and centrifuged for 10 min at 15000 rpm. 400 μL of supernatant was transferred to glass tube and dried under a steady stream of nitrogen at 35° C. The sample was re-suspended in 100 μL of 0.1% formic acid in H2O: 0.1% formic acid in methanol (1:1 v/v) and injected (3 μl) into LC-MS/MS system.\nLiquid Chromatography Tandem Mass Spectrometry (LC-MS/MS). LC-MS/MS analysis was performed on a TSO Altis Triple Stage Quadrupole Mass Spectrometer coupled to an Ultimate 3000 RS Liquid Chromatogram system (Thermo Scientific, San Jose, CA). The LC separation was performed on a BEH C18 column (2.1×50 mm, 1.7 μm) (Waters Corporations, Milford, MA) operated at 30° C. Mobile phase solvent A and B consisted of 0.1% FA in H2O and 0.1% FA in methanol, respectively. The gradient program started with 35% B; followed by a linear gradient to 50% Bin 0.7 min; maintained 50% B until 1.5 min; followed by a linear gradient back to 35% B in 2 min and maintained until 3 min. The flow rate was set at 0.22 ml/min. The retention time of Regadenoson and the IS was 1.09 min, and the total run time was 3 min.\nDetection was performed in the positive-ion mode using electrospray ionization (ESI). Source parameters were as follows: spray voltage, 3500; Ion transfer tube temperature, 350; vaporizer temperature, 300; sheath gas pressure, 50; auxiliary gas pressure, 10; and sweet gas, 1. The compound parameters: collision energy (CE), and RF lens were 35 and 77 V, respectively for Regadenoson and the IS. Selected reaction monitoring (SRM) was used for mass detection with the following transitions: Regadenoson (m/z 391.1-259.2; quant) and (m/z 391.1-228.1; qual), Regadenoson-d3 (m/z 394.0-262.2; quant) and (m/z 394.0-228.2; qual). Data collection and analysis was performed by Xcalibur V 2.1 (Thermo Scientific, San Jose, CA).\nAnalytical parameters: The linear range is 0.05-50 ng/mL in human plasma. Samples that exceeded the upper limit of quantification were diluted 2 or 4 fold and reinjected."}, "[2]": {"system": "plasma proinflammatory cytokines/chemokines", "assay": "Luminex plasma cytokines/chemokines in regadenoson-treated COVID-19 patients", "type": "in vivo, human"}, "[3]": {"system": "SARS-CoV-2 strain B.1.351", "type": "in vivo, Golden Syrian hamster"}, "[4]": {"details": "PI day 7, compared to control group"}},
  "note": "Entries after “also recorded” stand apart in the source; their conditions may differ.",
  "data": [
    {"smiles": "CNC(=O)c1cnn(-c2nc(N)c3ncn([C@@H]4O[C@H](CO)[C@@H](O)[C@H]4O)c3n2)c1", "note": "[Regadenoson]", "values": [
      {"measurement": "PMA-induced shedding of cell membrane-anchored RAGE", "setting": "MHS cells", "value": "suppressed the shedding of RAGE; also recorded: partially inhibited"},
      {"measurement": "median peak plasma levels of regadenoson", "setting": "[1]; 1.44 ug/kg/hour for 12 hours, preliminary result before dose alteration", "value": 1.68, "unit": "ng/mL"},
      {"measurement": "levels of regadenoson in blood", "setting": "[1]; after 24 hours post regadenoson infusion", "value": "minimal"},
      {"measurement": "time of peak drug level post infusion start", "setting": "[1]; high dose group, 2.88 ug/kg/hr for 12 hours", "value": 12, "unit": "h"},
      {"measurement": "median peak plasma levels of regadenoson", "setting": "[1]; high dose, 2.88 ug/kg/hr", "value": 14.34, "unit": "ng/mL"},
      {"measurement": "time of peak drug level post infusion start", "setting": "[1]; low dose group, 1.44 ug/kg/hr for 12 hours", "value": 6, "unit": "h"},
      {"measurement": "median peak plasma levels of regadenoson", "setting": "[1]; low dose, 1.44 ug/kg/hr", "value": 1.30, "unit": "ng/mL"},
      {"measurement": "measured cytokines reduced", "setting": "[2]; 14-plex Luminex panel, after 4 hours of regadenoson infusion", "value": "Twelve of the fourteen"},
      {"measurement": "levels of 13 pro-inflammatory cytokines, ratio over baseline", "setting": "[2]; 30 minutes after start of RA infusion", "value": "very little effect"},
      {"measurement": "pro-inflammatory cytokines reduced, ratio over baseline", "setting": "[2]; 4.5 hours after start of RA infusion", "value": "11 of 13"},
      {"measurement": "albumin leakage into BAL", "setting": "[3]; [4]", "value": "slight increase; also recorded: did not significantly"},
      {"measurement": "plasma IL13", "setting": "[3]; [4]", "value": "slightly depressed; also recorded: did not significantly"},
      {"measurement": "time course of the disease or viral titer detected in throat swabs", "setting": "[3]; RT-qPCR", "value": "did not significantly"},
      {"measurement": "plasma IL4", "setting": "[3]; compared to control", "value": "depressed; also recorded: did significantly"},
      {"measurement": "decrease in weight gain", "setting": "[3]; daily weights, vs control group", "value": "did not significantly"},
      {"measurement": "histologic distribution or severity of lung pathology", "setting": "[3]; day 7", "value": "did not significantly"},
      {"measurement": "plasma Transforming Growth Factor beta (TGFb)", "setting": "[3]; day 7, compared to control", "value": "decreased; also recorded: did significantly"},
      {"measurement": "spread of virus to olfactory bulb (brain)", "setting": "[3]; day 7, compared to control", "value": "decreased; also recorded: did significantly"},
      {"measurement": "respiratory physiology parameters (EF50, Rpef, Penh)", "setting": "[3]; whole body plethysmography, PI day 7", "value": "did not significantly"}
    ]}
  ]
}
